From article PMC5855875, “Teixobactin analogues reveal enduracididine to be non-essential for highly potent antibacterial activity and lipid II binding” (Chemical Science, 2017)
In brackets after ≈: the same amount, converted by molar mass. One block for each compound: values may come before it. Bridge positions count the residues as written; N and C are the ends. Square brackets hold non-standard residues; d marks the D form. Peptide text beside a SMILES is read from it. d(aIle) = CC[C@H](C)[C@@H](N)C(=O)O; dNMeF = CN[C@H](Cc1ccccc1)C(=O)O

What was measured:
[1] = system: MRSA ATCC 33591; assay: microbe, parasite or virus in culture; details: for MIC: ATCC 33591, 24 h
Experimental: were grown in Mueller Hinton broth (Oxoid) in triplicate. All incubations were at 37°C. Dilutions were carried out in triplicate. 100 µl of autoclaved Mueller Hinton broth was added to wells 2-12 in a 96-well plate. 200 µl of the peptide was added to well one at a concentration of 256 µg/mL. 100µl of peptide in well one was taken up and pipetted into well two. The mixture was then mixed via pipetting before 100µl was taken up and pipetted into well three. This process was repeated up to well 11. Once […]
peptide present. Thus, the concentrations (in µg/mL) were: 256, 128, 64, 32, 16, 8, 4, 2, 1, 0.5, 0.25 and no peptide present. Each well was then inoculated with 100µl of bacteria that had been diluted to an […]
This was repeated three times. The 96-well plates were then incubated at 37°C for 24 hours. The MIC was determined to be the lowest concentration at which there was no growth visible. […]
was repeated at an altered initial concentration of 64 µg/ml. Therefore, the new concentrations for MIC […]
(§1) VIII. MIC testing (extended panel)
(§2) Bacterial cultures were grown overnight i n Mueller-Hinton Agar (MHA) plates and adjusted to a final concentration of 10 5 – 106 CFU/ml. 100 µl of inoculum in Meuller -Hinton broth (MHB) was mixed with equal volume of peptides (dissolved in MHB) at 2x their concentration in a 96 well plate. In parallel experiments, MIC values were determined in the media containing polysorbate 80 (0 .002%, v/v) to […]

[2] = system: MRSA 1: MRSA ATCC 700699; assay: microbe, parasite or virus in culture
Experimental: as §1, §2
(§3) prevent non-specific adsorption of the peptides to plastic surfaces. The final peptides concentrations […]
(§4) Positive and negative controls contained 200 µl of inoculum without any peptide dissolved in broth, respectively. The 96 well plates were then incubated at 37 °C for 24 h.
(§5) All the experiments were performed in two independent duplicates and the MIC was determined as the […]
(§6) Minimum bactericidal concentration
(§7) The lowest concentration in which no visible colonies could be detected was taken as the MBC.
(§8) 80. Strain information: MRSA 1: MRSA ATCC 700699, MRSA 2: MRSA DR 42412 (sputum), MRSA
(§9) 3: MRSA DM21455 (eye). […] Staphylococcus aureus ATCC

[3] = system: MRSA 3: MRSA DM21455 (eye); assay: microbe, parasite or virus in culture
Experimental: as §1, §2, §3, §4, §5, §6, §7, §8, §9

[4] = system: Staphylococcus aureus ATCC 29213; assay: microbe, parasite or virus in culture
Experimental: as §1, §2, §3, §4, §5, §6, §7, §8, §9

[5] = system: MRSA 2: MRSA DR 42412 (sputum); assay: microbe, parasite or virus in culture
Experimental: as §1, §2, §3
(§10) Positive and negative controls contained 200 µl of inoculum without any peptide dissolved in broth, respectively. The 96 well plates were then incubated at 37 °C for 24 h. […]
as §8, §9

[6] = system: VRE 1: VRE ATCC 700802; assay: organism not typed
Experimental: as §1, §2, §3, §10, §8, §9

[7] = system: VRE 2: VRE ATCC 29212; assay: organism not typed
Experimental: as §1, §2, §3, §10, §8, §9

[8] = from MIC against MRSA ATCC 33591

MIC [1]: 32 μg mL^–1
SMILES: CC[C@H](C)[C@H](NC(=O)[C@@H](Cc1ccccc1)NC)C(=O)N[C@@H](CO)C(=O)N[C@H](CCC(N)=O)C(=O)N[C@@H](C(=O)N[C@H](C(=O)N[C@@H](CO)C(=O)N[C@H]1C(=O)N[C@@H](C)C(=O)N[C@H](C)C(=O)N[C@@H]([C@@H](C)CC)C(=O)O[C@H]1C)[C@@H](C)CC)[C@@H](C)CC [Compound 9, D-Ala10-teixobactin] (H-[dNMeF]IS[dQ][d(aIle)]IS[dT]A[dA]I; ester 8-C)
times lower antibacterial activity than Arg10-teixobactin [1, 8]: 16 times

MIC [1]: 2 μg mL^–1
SMILES: CC[C@H](C)[C@H](NC(=O)[C@@H](Cc1ccccc1)NC)C(=O)N[C@@H](CO)C(=O)N[C@H](CCC(N)=O)C(=O)N[C@@H](C(=O)N[C@H](C(=O)N[C@@H](CO)C(=O)N[C@H]1C(=O)N[C@@H](C)C(=O)NCC(=O)N[C@@H]([C@@H](C)CC)C(=O)O[C@H]1C)[C@@H](C)CC)[C@@H](C)CC [Compound 10, Gly10-teixobactin] (H-[dNMeF]IS[dQ][d(aIle)]IS[dT]AGI; ester 8-C)

MIC [1]: 0.5 μg mL^–1
MIC ([2]; ATCC 700699, 24 h): 1 μg mL^–1
MIC (without polysorbate 80) ([2]; ATCC 700699, 24 h): 4 µg/mL (≈ 3.37 µM)
MIC (with polysorbate 80) ([2]; MRSA 1, MHB containing polysorbate 80 (0.002%, v/v), 37 °C, 24 h, two independent duplicates): 1 µg/mL (≈ 0.842 µM)
MIC ([3]; 3: DM21455 (eye, 24 h)): 0.25 μg mL^–1
MIC (without polysorbate 80) ([3]; 3: DM21455 (eye, 24 h)): 4 µg/mL (≈ 3.37 µM)
MIC (with polysorbate 80) ([3]; MRSA 3, MHB containing polysorbate 80 (0.002%, v/v), 37 °C, 24 h): 0.25 µg/mL (≈ 0.211 µM)
MIC (without polysorbate 80) ([4]; ATCC 29213, 24 h): 2 µg/mL (≈ 1.68 µM)
MIC (with polysorbate 80) ([4]; S. aureus ATCC 29213, MHB containing polysorbate 80 (0.002%, v/v), 37 °C, 24 h): 0.25 µg/mL (≈ 0.211 µM)
MIC ([5]; 2: DR 42412 (sputum, 24 h)): 0.5 μg mL^–1
MIC (without polysorbate 80) ([5]; 2: DR 42412 (sputum, 24 h)): 2 µg/mL (≈ 1.68 µM)
MIC (with polysorbate 80) ([5]; MRSA 2, MHB containing polysorbate 80 (0.002%, v/v), 37 °C, 24 h): 0.5 µg/mL (≈ 0.421 µM)
MIC ([6]; ATCC 700802, 24 h): 0.5 μg mL^–1
MIC (without polysorbate 80) ([6]; ATCC 700802, 24 h): 4 µg/mL (≈ 3.37 µM)
MIC (with polysorbate 80) ([6]; VRE 1, MHB containing polysorbate 80 (0.002%, v/v), 37 °C, 24 h): 0.5 µg/mL (≈ 0.421 µM)
MIC ([7]; ATCC 29212, 24 h): 0.5 μg mL^–1
MIC (without polysorbate 80) ([7]; ATCC 29212, 24 h): 4 µg/mL (≈ 3.37 µM)
MIC (with polysorbate 80) ([7]; VRE 2, MHB containing polysorbate 80 (0.002%, v/v), 37 °C, 24 h): 0.5 µg/mL (≈ 0.421 µM)
SMILES: CC[C@H](C)[C@H](NC(=O)[C@@H](Cc1ccccc1)NC)C(=O)N[C@@H](CO)C(=O)N[C@H](CCC(N)=O)C(=O)N[C@@H](C(=O)N[C@H](C(=O)N[C@@H](CO)C(=O)N[C@H]1C(=O)N[C@@H](C)C(=O)N[C@@H](C(C)C)C(=O)N[C@@H]([C@@H](C)CC)C(=O)O[C@H]1C)[C@@H](C)CC)[C@@H](C)CC [Compound 11, Val10-teixobactin] (H-[dNMeF]IS[dQ][d(aIle)]IS[dT]AVI; ester 8-C)
times better antibacterial activity than Arg10-teixobactin [1, 8]: 4 times
MBC ([2]; MRSA 1 (MRSA ATCC 700699), plated on MHA, 37 °C, 24 h): 4 μg mL^–1
MBC ([3]; MRSA 3 (MRSA DM21455), plated on MHA, 37 °C, 24 h): 2 μg mL^–1
MBC ([4]; Staphylococcus aureus ATCC 29213, plated on MHA, 37 °C, 24 h): 1 μg mL^–1
MBC ([5]; MRSA 2 (MRSA DR 42412), plated on MHA, 37 °C, 24 h): 4 μg mL^–1
